“Also recorded” adds a separate entry of the source.

In experiment [1] the test system is P. falciparum. The settings on record: culture of P. falciparum; cited from earlier work.
Experiment [2] relates to P. falciparum (chloroquine-resistant). The experiment in a line: P. falciparum culture growth by [3H]-hypoxanthine uptake, drugs singly or in combination, with isobolographic analysis. Format: cell-based, Plasmodium falciparum. The following applies: 48 hrs, starting parasitemia 2-3%. Here is the method:
(§1) Appropriate solvent controls were used. Parasite growth was measured by staining the slides with Giemsa as well as [α3H]-hypoxanthine uptake. In the latter case, the cultured cells were lysed with water and the parasites collected by filtration, washed and radioactivity measured. Adult f mice (40-50 g) were infected with P. berghei by intraperitoneal injection of an aliquot of infected mouse blood. After 24 hr, the animals were given a single injection of different amounts of artemisinin derivative at a dose of 5 mg/mouse. The oral feeding was repeated after 24 hr and 48 hr. Parasite count was measured in blood before and drug therapy at different time intervals using Giemsa to stain the slides. All the infected mice die in a span of 5-8 days and the efficacy of the drugs given singly or in combination was measured in terms of parasite clearance in blood and protection against mortality.
The potency of the combination was assessed by isobolographic characterization of the drug interactions. The additive or synergistic or antagonistic effects were assessed based on the following interaction index:
When I is less than 1 the drugs interact synergistically and the isobol bows below the line of additivity. When I is equal to 1 the isobol is coincident with the line of additivity and the interaction is additive. When I is greater than 1, the isobol bows above the line of additivity and the interaction is antagonistic. […] The interaction between curcumin and artemisinin is thus clearly synergistic.
P. falciparum (chloroquine-resistant) was maintained in culture using human O+ve red cells and serum by the candle jar method as per standard protocols. […] Appropriate solvent controls were used. Parasite growth was quantitatively measured using 3[H]-hypoxanthine uptake. The cultured cells were incubated for 48 hrs and then the parasites were collected by filtration after lysis of the cells. The filters were extensively washed and then radioactivity measured. […] The potency of the combination was assessed by isobolographic characterization of drug interactions.
The T values ranged from 0.7 to 0.85 in all combinations. The isobol bowling below the line of additivity and the T values being less than 1 indicate that the curcumin-artemisinin. Interaction is clearly synergistic

The subject of experiment [3] is P. berghei. The following applies: mice infected with P. berghei; cited from earlier work.
Experiment [4] deals with P. berghei. The experiment can be described thus: Protection of mice infected with P. berghei (mortality, parasite count in blood). It counts as in vivo. The protocol: as §1
Striking results were obtained in terms of parasite clearance and protection against mortality. The experiments were carried out with 6 mice per batch and the experiments were repeated at least 3 times. The results presented in FIG. 3 represent those obtained in a typical experiment. The results obtained in the 2nd and 3rd experiments are identical in pattern. The average pattern obtained with the infected animals is as follows. All the infected animals die in about 5-8 days. […] A single injection of artemisinin derivative (α,β-arteether) at a dose of 500 μg/mouse results in death of animals in 10-12 days. […] Treatment with a single injection α,β-arteether at 750 μg and 1.5 mg results in death of animals between 20-26 days and 32-38 days respectively. […] The animals continue to live normally for several months. This picture is also supported by parasite load in blood (FIG. 4).
Methodology; Mice (−40 g) were infected ˜ with P. berghei by intraperitoneal infection. After 24 hrs, the animals received a single injection of different concentrations of a derivative of artemisinin (α,β-arteether) (500˜g to 1.5 mg) by the intramuscular route. […] The oral treatment was repeated after 24 hr and 48 hr. Blood smears were made from the mice at different day intervals and parasites stained with Giemsa. […] The experiments were repeated thrice with 6 mice in each group.

For the compound `COc1cc(/C=C/C(=O)CC(=O)/C=C/c2ccc(O)c(OC)c2)ccc1O` [curcumin], the antimalarial activity result in experiment [1] and in experiment [3] was “has antimalarial activity” in each case. The IC50 (usually the midpoint of a concentration-inhibition curve) in experiment [2] was ~15 µM; in experiment [2] (Plasmodium falciparum) it was 15 to 17 µM. In experiment [4] (curcumin alone, 3 day oral treatment (5 mg), untreated infected mice die in 5-8 days), the death of animals lay within 10 to 12 days.
In the case of `CCO[C@H]1O[C@@H]2O[C@@]3(C)CC[C@H]4[C@H](C)CC[C@@H]([C@H]1C)[C@@]24OO3` [α,β-arteether], the death of animals in experiment [4] (single injection 750 μg per mouse) is 20 to 26 days; in experiment [4] (single injection 1.5 mg per mouse), 32 to 38 days. Also, in experiment [4] (single injection, Giemsa stained blood smears), the “parasite load in blood” value is “clears the parasites in blood initially, but there is recrudescence; also recorded: clears parasites in blood initially, but there was recrudescence”.
On to `C[C@@H]1CC[C@H]2[C@@H](C)C(=O)O[C@@H]3O[C@@]4(C)CC[C@@H]1[C@]32OO4` [artemisinin], for which the IC50 in experiment [2] is ~0.055 µM; in experiment [2] (Plasmodium falciparum), 0.045 to 0.055 µM.

These data come from patent US7776911B2 (priority 2005, dated 2010).
